Test results published in patent publication US5858972A, “Antithrombotic agents and methods of use” (La Jolla Cancer Research Foundation, priority 1996, dated 1999).
≈ marks a conversion by molar mass, not a printed value. Where a SMILES comes first, the peptide text is derived from it. Bridges are numbered along the chain shown (N, C = ends). [ ]: non-standard residue; d: D form. Nle = CCCC[C@H](N)C(=O)O

How the values were obtained:
[1] = test system: platelets (platelet-rich plasma); test: ADP-induced platelet aggregation in citrated platelet-rich plasma (low Ca2+); assay type: cell-based; details: human PRP, 10 μM ADP; for IC50, platelet aggregation in citrated plasma: citrated plasma (about 0.18 mM free Ca2+), 37° C.
Source text: (§1) This example provides platelet aggregation studies for various peptides of the present invention. The studies compare the effect of the peptide on aggregation in both citrated and heparinized plasma. Because citrate is a chelating agent for calcium ions, the citrated plasma has a low calcium concentration as is characteristic of a clot site. In contrast, heparinized plasma has a calcium concentration similar to that of physiological conditions elsewhere in the blood stream.
(§2) Whole blood was drawn by a licensed phlebotomist from the antecubital vein using a 21 gauge butterfly infusion set and syringe from normal human volunteers. Platelet-rich plasma (PRP) was prepared by centrifuging heparinized (20 Units lithium porcine mucosa heparin/ml whole blood) or citrated (0.38% sodium citrate) whole blood for 12 min. at 200 relative centrifugal force (RCF). Platelet-poor plasma (PPP) is prepared by centrifuging PRP at 750 RCF for 12 min. and collecting the supernatant. Blood cell counts were performed using a Serano Baker automated cell counter. PRP platelet counts were adjusted to 200,000/μl by dilution with PPP. Final plasma free Ca+^2 concentrations were approximately 0.18 mM for citrated plasma and 2.3 mM for heparinized plasma. Platelet aggregation was determined spectrophotometrically utilizing a four channel aggregometer (Chrono-Log 570) by measuring the increase of light transmission through a stirred suspension of PRP maintained at 37° C. Dilutions of the peptides were added to the suspensions and aggregation induced with 10 μM adenosine diphosphate (ADP). Values were expressed as percentage of aggregation in the absence of peptides. This represents the percentage of light transmission standardized to PRP and PPP samples yielding 0% and 100% light transmission respectively.
(§3) Peptide anti-aggregation potencies were determined from dose-responsive curves for the inhibition of the maximum aggregation responses stimulated by high doses of ADP (10 μm). The 50% inhibitory concentration of each peptide (IC50) was determined by regression analysis of these curves.

[2] = biological target: T1, GP-IIb/IIIa (Homo sapiens, UniProt P05106+P08514); test: Platelet aggregation in citrated (low Ca2+) versus heparinized (physiological Ca2+) plasma: apparent affinity for GP-IIb/IIIa; assay type: cell-based; details: 10 μM ADP; for difference in apparent binding affinity for GP-IIb/IIIa at low (citrate) versus higher (heparin) calcium concentration, in words: citrated vs heparinized plasma; for increase (separation) in apparent affinity for GP-IIb/IIIa in low calcium concentration as compared to physiological calcium concentration: citrated plasma (about 0.18 mM Ca2+) vs heparinized plasma (2.3 mM Ca2+)
T1 construct: Platelet-rich plasma (PRP) was prepared by centrifuging heparinized; endogenous in cells; host or cells: human platelets in platelet-rich plasma (citrated or heparinized) from normal volunteers
T1 sequence (P08514 32-887 limits assumed): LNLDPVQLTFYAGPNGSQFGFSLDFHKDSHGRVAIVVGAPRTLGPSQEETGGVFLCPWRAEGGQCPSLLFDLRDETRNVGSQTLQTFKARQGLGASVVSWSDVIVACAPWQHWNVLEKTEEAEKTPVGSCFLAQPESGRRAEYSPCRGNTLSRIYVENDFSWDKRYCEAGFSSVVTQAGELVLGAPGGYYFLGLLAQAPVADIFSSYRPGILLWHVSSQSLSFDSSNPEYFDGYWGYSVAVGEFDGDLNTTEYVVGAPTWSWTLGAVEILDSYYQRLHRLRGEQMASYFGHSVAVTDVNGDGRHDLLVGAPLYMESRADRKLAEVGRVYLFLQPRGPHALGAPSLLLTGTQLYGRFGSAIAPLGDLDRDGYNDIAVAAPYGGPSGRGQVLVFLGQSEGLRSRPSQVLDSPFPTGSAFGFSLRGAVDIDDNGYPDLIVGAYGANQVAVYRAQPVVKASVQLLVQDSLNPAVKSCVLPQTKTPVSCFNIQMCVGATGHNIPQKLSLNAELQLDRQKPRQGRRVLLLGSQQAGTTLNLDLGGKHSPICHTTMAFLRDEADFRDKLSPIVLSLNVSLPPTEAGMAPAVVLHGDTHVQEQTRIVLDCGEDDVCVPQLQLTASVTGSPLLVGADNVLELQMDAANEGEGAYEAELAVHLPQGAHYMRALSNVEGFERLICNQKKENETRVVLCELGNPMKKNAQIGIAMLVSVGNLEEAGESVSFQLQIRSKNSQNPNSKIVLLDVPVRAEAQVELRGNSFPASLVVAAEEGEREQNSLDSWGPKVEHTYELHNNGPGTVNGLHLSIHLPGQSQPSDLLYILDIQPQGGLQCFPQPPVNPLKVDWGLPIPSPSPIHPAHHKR
T1 sequence (P08514 891-1039 partner limits assumed): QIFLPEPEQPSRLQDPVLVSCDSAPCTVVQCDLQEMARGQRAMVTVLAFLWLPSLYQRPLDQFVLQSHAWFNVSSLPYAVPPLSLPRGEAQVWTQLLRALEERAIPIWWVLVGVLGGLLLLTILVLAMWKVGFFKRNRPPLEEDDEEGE
T1 sequence (P05106 27-788): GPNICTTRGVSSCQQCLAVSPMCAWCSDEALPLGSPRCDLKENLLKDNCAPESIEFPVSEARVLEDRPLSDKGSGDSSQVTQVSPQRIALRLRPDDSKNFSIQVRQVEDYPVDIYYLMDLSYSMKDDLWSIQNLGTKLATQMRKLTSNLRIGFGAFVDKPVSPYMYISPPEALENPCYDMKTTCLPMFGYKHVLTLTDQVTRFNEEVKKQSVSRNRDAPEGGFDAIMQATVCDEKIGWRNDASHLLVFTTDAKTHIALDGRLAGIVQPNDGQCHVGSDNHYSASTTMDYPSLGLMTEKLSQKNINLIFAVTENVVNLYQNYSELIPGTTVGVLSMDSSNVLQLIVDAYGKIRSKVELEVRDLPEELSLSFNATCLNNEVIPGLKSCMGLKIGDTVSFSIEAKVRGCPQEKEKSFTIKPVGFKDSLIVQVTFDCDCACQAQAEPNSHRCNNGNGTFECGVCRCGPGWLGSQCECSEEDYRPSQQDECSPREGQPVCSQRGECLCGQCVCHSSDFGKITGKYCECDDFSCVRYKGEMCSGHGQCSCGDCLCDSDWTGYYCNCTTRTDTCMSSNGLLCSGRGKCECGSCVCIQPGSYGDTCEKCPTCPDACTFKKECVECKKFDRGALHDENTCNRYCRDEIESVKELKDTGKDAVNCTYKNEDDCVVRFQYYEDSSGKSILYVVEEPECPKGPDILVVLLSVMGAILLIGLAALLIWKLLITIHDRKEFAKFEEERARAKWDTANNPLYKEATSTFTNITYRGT
Source text: as §1, §2, §3

Structure (SMILES)	inhibitory activity on platelet aggregation stimulated with ADP, in words [1]	IC50, platelet aggregation in citrated plasma [1]	difference in apparent binding affinity for GP-IIb/IIIa at low (citrate) versus higher (heparin) calcium concentration, in words [2]	increase (separation) in apparent affinity for GP-IIb/IIIa in low calcium concentration as compared to physiological calcium concentration [2]
COc1ccc(C[C@H](NC(=O)[C@H](CC(=O)O)NC(=O)CNC(=O)[C@H](C)NC(=O)[C@@H]2CCCN2C(=O)[C@H](CC(N)=O)NC(=O)[C@H](CS)NC(C)=O)C(=O)N[C@@H](CCCNC(=N)N)C(=O)N[C@@H](CS)C(N)=O)cc1 [SEQ ID NO. 5, Ac-CNPAGD(Y-OMe)RC-NH2] (Ac-CNPAGDY(Me)RC-NH2)	little to no activity	> 370 µg/mL	no difference in their apparent affinity for GP-IIb/IIIa at low versus higher calcium concentration	
COc1ccc(C[C@@H]2NC(=O)[C@H](CC(=O)O)NC(=O)CNC(=O)[C@H](CCCNC(=N)N)NC(=O)[C@@H]3CCCN3C(=O)[C@H](CC(N)=O)NC(=O)[C@@H](NC(C)=O)CSSC[C@@H](C(N)=O)NC(=O)[C@H](CCCNC(=N)N)NC2=O)cc1 [SEQ ID NO. 8, Ac-CNPRGD(Y-OMe)RC-NH2]		0.2 µg/mL (≈ 0.176 µM)		12 fold
CCCC[C@@H]1NC(=O)[C@@H]2CCCN2C(=O)[C@H](CC(N)=O)NC(=O)[C@@H](NC(C)=O)CSSC[C@@H](C(N)=O)NC(=O)[C@H](CCCNC(=N)N)NC(=O)[C@H](Cc2ccc(OC)cc2)NC(=O)[C@H](CC(=O)O)NC(=O)CNC1=O [SEQ ID NO. 3, Ac-CNP(Nle)GD(Y-OMe)RC-NH2] (Ac-CNP[Nle]GDY(Me)RC-NH2; disulfide 1-9)		43 µg/mL (≈ 39.3 µM)		20 fold
COc1ccc(C[C@@H]2NC(=O)[C@H](CC(=O)O)NC(=O)CNC(=O)[C@H](C)NC(=O)[C@@H]3CCCN3C(=O)[C@H](CC(N)=O)NC(=O)[C@@H](NC(C)=O)CSSC[C@@H](C(N)=O)NC(=O)[C@H](CCCNC(=N)N)NC2=O)cc1 [SEQ ID NO. 2, Ac-CNPAGD(Y-OMe)RC-NH2] (Ac-CNPAGDY(Me)RC-NH2; disulfide 1-9)		309 µg/mL (≈ 294 µM)	a separation between the apparent binding affinity	
CCCC[C@H](NC(=O)[C@@H]1CCCN1C(=O)[C@H](CC(N)=O)NC(=O)[C@H](CS)NC(C)=O)C(=O)NCC(=O)N[C@@H](CC(=O)O)C(=O)N[C@@H](Cc1ccc(OC)cc1)C(=O)N[C@@H](CCCNC(=N)N)C(=O)N[C@@H](CS)C(N)=O [SEQ ID NO. 6, Ac-CNP(Nle)GD(Y-OMe)RC-NH2] (Ac-CNP[Nle]GDY(Me)RC-NH2)	little to no activity	> 370 µg/mL	no difference in their apparent affinity for GP-IIb/IIIa at low versus higher calcium concentration	
